Results from patent US9808527B2, “Methods and compositions for treating HIV infections” (priority 2006, dated 2017).
Entries after “also recorded” stand apart in the source; their conditions may differ. Where two headings read alike, the source gives them in different places.

What was measured:
HIV-1LAI = assay: MTT assay, MT-2 cells exposed to HIV-1LAI (acute HIV-1 infection assay); assay type: cell-based
Method: Drug susceptibility assay. The susceptibility of HIV-1LAI, HIV-2EHO, HIV-2ROD, to various drugs and the cytotoxicity of those drugs was determined by using the MTT assay. Briefly, MT-2 cells (2×10^4/mL) were exposed to 100 TCID50s (50% tissue culture infectious doses) of HIV-1LAI, HIV-2EHO, or HIV-2ROD in the presence or absence of various concentrations of drugs in 96-well microculture plates and were incubated at 37° C. for 7 days. After 100 μL of the medium was removed from each well, 3-(4,5-dimethylthiazol-2-yl)-2,5-diphenyltetrazolium bromide (MTT) solution (10 μL, 7.5 mg/mL in phosphate-buffered saline) was added to each well in the plate, followed by incubation at 37° C. for 4 hours. […] All assays were performed in duplicate or triplicate. To determine the sensitivity of HIV-1Ba-L, HIV-1ERS104 pre, and clinical multi-drug-resistant HIV-1 isolates and different subtypes of HIV-1 isolates to drugs, phytohemagglutinin-activated peripheral blood mononuclear cells (PHA-PBMs; 10^6/mL) were exposed to 50 TCID50 (50% tissue infectious dose) of each HIV-1 isolate and cultured in the presence or absence of various concentrations of drugs in 10-fold serial dilutions in 96-well microtiter culture plates. To determine the drug susceptibility of certain laboratory HIV-1 strains (HIV-1NL4-3), MT-4 cells were used as target cells. MT-4 cells (10^5/mL) were exposed to 100 TCID50 of wild type HIV-1NL4-3 and PI-resistant HIV-1NL4-3 in the presence or absence of various concentrations of drugs and were incubated at 37° C. On day 7 of culture, the supernatant was harvested and the amount of p24 Gag protein was determined by using a fully automated chemiluminescent enzyme immunoassay system (Lumipulse F; Fujirebio Inc., Tokyo, Japan) (22). […] All assays were performed in duplicate or triplicate.

[1] = target: dimerized mature HIV-1 protease (Human immunodeficiency virus type 1 group M subtype B, UniProt P12497); assay: Assay for effects on dimerized mature protease (cycloheximide, FRET); assay type: cell-based; details: 1 μM added on day 5 after cycloheximide 50 μg/ml
Method: […] Cellular protein synthesis was monitored every 24 hours by determining levels of p24 Gag protein produced into culture medium using the fully automated chemiluminescent enzyme immunoassay system (Lumipulse F; Fujirebio Inc., Tokyo, Japan). The cells were exposed to TMC114 (1 μM) on day 5 and beyond of culture and analyzed under Fluoview FV500 confocal laser scanning microscope (OLYMPUS Optical Corp) at room temperature.
When the CFP^A/B ratios determined were greater than 1.0, it was determined that HIV-1 protease had been generated and dimerization had occurred. The production of HIV-1 was monitored every 24 hours following transfection by determining levels of p24 Gag protein produced into culture medium as described by Koh et al. Antimicrob Agents Chemother 47:3123-9 (2003).
Dissociation of already formed dimer. TMC114 was examined for its ability to dissociate the protease once dimerized within cells producing infectious HIV-1 virions. Cos-7 cells were co-transfected with wild-type pNLPR-CFP and -YFP plasmids, exposed to cycloheximide (50 μg/mL) in 24, 48, 72, and 96 hrs of culture and beyond, the cells exposed to 1 μM TMC114 on day 5 of culture and beyond, cellular protein synthesis was monitored every 24 hours by determining levels of p24 Gag protein produced into culture medium, and the values of the ratio were determined at various time points. […]

[2] = target: T1, CFP- and YFP-tagged HIV-1 protease subunits (Human immunodeficiency virus type 1 group M subtype B, UniProt P12497); assay type: cell-based; details: for dose response of dimerization inhibition: 0.001-10 μM (GRL-0026A 0.1-10 μM), 72 hrs
T1 construct: expressed in transfected cells; host or cells: Cos-7
Method: After 72 hr, cultured cells were examined in the FRET-HIV-1 assay system using confocal microscopy Fluoview FV500 confocal laser scanning microscope, and CFP^A/B were determined and plotted. […] The FRET efficiency was determined following acceptor photobleaching as previously described (Bastiaens et al., EMBO 1996; Siegel et al., Science's stke 2000; Firulli et al., Nature genetics, 2005; Szczesna et al., JBC 2003). Dequenching of the donor CFP by selective photobleaching of the acceptor YFP was performed by first obtaining YFP and CFP images at the same focal plane, followed by illuminating for 3 min the same image at wavelength of 488 nm with a laser power set at the maximum intensity to bleach YFP and re-capturing the same CFP and YFP images. The changes in the CFP and YFP fluorescence intensity in the images of selected regions were examined and quantified using Olympus FV500 Image software system. Background values were obtained from the regions where no cells were present and were subtracted from the values for the cells examined in all calculations. For each chimeric protein, the data were obtained from at least three independent experiments. FRET efficiency was determined using the formula: ET=(1−(IDA/ID))×100, where IDA and ID represent the steady-state donor fluorescence in the presence and absence of the acceptor, respectively. Digitized image data obtained from the experiment were prepared for presentation using Photoshop 6.0 (Adobe systems, Mountain View, Calif.). Ratios of intensities of ECFP fluorescence after photobleaching to ECFP fluorescence prior to photobleaching were determined. The ratios of more than 1 indicate that dimerization of CFP- and YFP-tagged protease subunits occurred and those of less than 1 indicate that dimerization was blocked by the test agent.
Generation of FRET-based HIV-1 expression assay. The basic concepts of the intermolecular fluorescence resonance energy transfer (FRET)-based HIV-1-expression assay (FRET-HIV-1 assay) are shown in FIG. 7. Within a plasmid (pHIV-1NL4-3), which encodes a full-length molecular infectious HIV-1 clone, the gene encoding a cyan fluorescent donor protein (CFP) was attached to the downstream end (C-terminus) of the gene encoding an HIV-1 protease subunit through the flexible linker added (five alanines), generating pHIV-1NL4-3/CFP (FIG. 7A). Within the other plasmid (pHIV-1NL4-3), the gene encoding a yellow fluorescent acceptor protein (YFP) was attached to the downstream end of protease-encoding gene in the same manner, generating pHIV-1NL4-3/YFP. Both CFP and YFP were designed to have phenylalanine and proline in the connection with reverse transcriptase so that the protease is cleaved from reverse transcriptase when two subunits dimerize and the dimerized protease acquires enzymatic activity. […] A focused laser beam excitation of CFP (triggered by Helium-Cadmium laser) results in rapid energy transfer to YFP, and most of the fluorescence photons are emitted by YFP (Miyawaki et al. Nature 388(6645):882-887 (1997)). If the dimerization is blocked, the average distance between CFP and YFP becomes larger and the energy transfer rate is decreased and the fraction of photons emitted by YFP is lowered.
In order to interpret the energy transfer efficiency quantitatively, an acceptor photobleaching technique was used, in which the change in CFP emission quenching is measured by comparing the value before and after selectively photobleaching YFP, which prevents problems associated with variable expression levels.

HIV = details: read-out: ID50 (the source's name); cited from earlier work
HIV-1 protease = target: T2, HIV-1 protease (Human immunodeficiency virus type 1 group M subtype B, UniProt P04585, C555A/C583A/L521I/L551I/Q495K/V491I); assay: biochemical; assay type: biochemical
T2 construct: Wild-type PR at final concentrations of 160-190 nM were added
From the text: Enzyme kinetics. The chromogenic substrate Lys-Ala-Arg-Val-Nle-p-nitroPhe-Glu-Ala-Nle-amide (Sigma, St. Louis, Mo.) was used to determine the kinetic parameters (Kovalevsky et al. J Mol Biol 363(1):161-173 (2006), Ghosh et al. J Med Chem 49(17):5252-5261 (2006)). […] The kcat and Km values were obtained employing standard data fitting techniques for a reaction obeying Michaelis-Menten kinetics. The data curves were fitted using SigmaPlot 8.0.2 (SPSS Inc., Chicago, Ill.). The active enzyme concentrations were calculated from the intercept of the linear fit to the IC50 versus [S] plots with the IC50 axis. The Ki values were obtained from the IC50 values estimated from an inhibitor dose-response curve with the spectroscopic assay using the equation Ki=(IC50-[E]/2)/(1+[S]/Km), where [E] and [S] are the PR and substrate concentrations, respectively (Maibaum & Rich J Med Chem 31(34):625-629 (1988)). The Ki values were measured at four to five substrate concentrations. The measurement was repeated at least three times to produce the average values.

[3] = Human immunodeficiency virus 1, MT2, 168 h, read-out: IC50 against HIV-1LAI, MT-2 cells, 100 TCID50 of HIV-1LAI, MTT assay on day 7
[4] = Human immunodeficiency virus 1, MT2, 168 h, read-out: MTT assay (IC50, nM), Human CD4+ MT-2 cells, 100 TCID50 of HIV-1LAI, day 7
[5] = MT-2 cells, 100 TCID50 of HIV-1LAI, MTT assay on day 7, read-out: IC50 against HIV-1LAI

CC(C)CN(C[C@@H](O)[C@H](Cc1ccccc1)NC(=O)O[C@H]1CO[C@H]2OCC[C@H]21)S(=O)(=O)c1ccc(N)cc1 [DRV, darunavir]
IC50 (HIV-1LAI; [3]): 3 nM
IC50 (HIV-1LAI; [4]): ~3 nM
dissociation of already dimerized protease [1]: failed to dissociate mature protease dimer
dissociation of already dimerized protease ([1]; listed as TMC114): no inhibition of FRET was detected; also recorded: did not appear to reverse the dimerization
inhibition of protease dimerization ([2]; 1 μM, Cos-7 cells): disrupt protease dimerization
inhibition of protease dimerization ([2]; 1 μM, Cos-7 cells, listed as TMC114): dimerization was effectively blocked; also recorded: blocked the dimerization; also recorded: blocked protease dimerization
concentration effectively blocking FRET / disrupting protease dimerization ([2]; in culture, Cos-7 cells): 0.1 µM

COc1ccc(S(=O)(=O)N(CC(C)C)CC(O)C(Cc2ccccc2)NC(=O)OC2COC3OCCC23)cc1 (centres unmarked) [drawing 20]
IC50 (HIV): 1.4 nM

COc1ccc(S(=O)(=O)N(CC(C)C)CC(O)C(Cc2ccccc2)NC(=O)OC2COC3OCCCC23)cc1 (centres unmarked)
IC50 (HIV): 4.5 nM

Cc1nc(COc2ccc(C[C@H](NC(=O)O[C@H]3CO[C@H]4OCC[C@H]43)[C@H](O)CN(CC(C)C)S(=O)(=O)c3ccc4c(c3)OCO4)cc2)cs1 [BCV, brecanavir]
IC50 (HIV-1LAI; [3]): 0.2 nM
Ki (HIV-1 protease): 0.0068 nM
inhibition of protease dimerization ([2]; 1 μM, Cos-7 cells): disrupt protease dimerization
dose response of dimerization inhibition [2]: Dose-responsive dimerization inhibition

Cc1ccnc2c1NC(=O)c1cccnc1N2C1CC1 [NVP, nevirapine]
inhibition of protease dimerization ([2]; 1 μM, Cos-7 cells): failed to inhibit the dimerization
inhibition of protease dimerization ([2]; 1 μM, Cos-7 cells, listed as nevirapine): did not block the dimerization; also recorded: failed to inhibit HIV-1 protease dimerization

Nc1nc(NC2CC2)c2ncn([C@H]3C=C[C@@H](CO)C3)c2n1 [ABC, abacavir]
inhibition of protease dimerization ([2]; 10 μM, Cos-7 cells): failed to inhibit the dimerization
inhibition of protease dimerization ([2]; 10 μM, Cos-7 cells, listed as abacavir): did not block the dimerization; also recorded: failed to inhibit HIV-1 protease dimerization

COc1ccc(S(=O)(=O)N(CC(C)C)CC(O)C(Cc2ccccc2)NC(=O)OC2COC3OCCC23)cc1 (centres unmarked) [TMC126]
IC50 (HIV-1LAI; [3]): 0.3 nM
IC50 (HIV-1LAI; [4]): 0.3 nM
inhibition of protease dimerization ([2]; 1 μM, Cos-7 cells): dimerization was effectively blocked; also recorded: disrupt protease dimerization
dose response of dimerization inhibition [2]: Dose-responsive dimerization inhibition

COc1ccc(S(=O)(=O)N(CC(C)C)C[C@@H](O)[C@H](Cc2ccccc2)NC(=O)C[C@H]2CO[C@H]3OCC[C@@H]23)cc1 [GRL-0026A]
IC50 (HIV-1LAI; [5]): 480 nM
dose response of dimerization inhibition [2]: Dose-responsive dimerization inhibition

CCCCN1C(=O)[C@@H]([C@H](O)C2CCCCC2)NC(=O)C12CCN(Cc1ccc(Oc3ccc(C(=O)O)cc3)cc1)CC2 [aplaviroc]
inhibition of protease dimerization ([2]; 1 μM, Cos-7 cells): did not block the dimerization; also recorded: failed to inhibit the dimerization; also recorded: failed to inhibit HIV-1 protease dimerization

Cc1ccc(S(=O)(=O)N(CC(C)C)CC(O)C(Cc2ccccc2)NC(=O)OC2COC3OCCC23)cc1 (centres unmarked)
IC50 (HIV): 3.5 nM

CC(C)CN(CC(O)C(Cc1ccccc1)NC(=O)OC1COC2OCCC12)S(=O)(=O)c1ccc(N)cc1 (centres unmarked)
IC50 (HIV): 4.5 nM

O=C1Nc2ccc(Cl)cc2[C@@](C#CC2CC2)(C(F)(F)F)O1 [EFV, efavirenz]
inhibition of protease dimerization ([2]; 1 μM, Cos-7 cells): failed to inhibit the dimerization
inhibition of protease dimerization ([2]; 1 μM, Cos-7 cells, listed as efavirenz): did not block the dimerization; also recorded: failed to inhibit HIV-1 protease dimerization

CC(C)CN(C[C@@H](O)[C@H](Cc1ccccc1)NC(=O)O[C@@H]1C[C@@H]2CCO[C@@H]2C1)S(=O)(=O)c1ccc(CO)cc1 [GRL-06579A]
IC50 (HIV-1LAI; [5]): 1 nM
Ki (HIV-1 protease; wild-type PR, pH 5.0, read-out: Ki against HIV-1 protease): 0.0035 nM
inhibition of protease dimerization ([2]; 1 μM, Cos-7 cells): dimerization was effectively blocked; also recorded: disrupt protease dimerization

CCC[C@@]1(CCc2ccccc2)CC(O)=C([C@H](CC)c2cccc(NS(=O)(=O)c3ccc(C(F)(F)F)cn3)c2)C(=O)O1 [TPV, tipranavir]
IC50 (HIV-1LAI; [3]): 100 nM
